Consider one molecule from ChEMBL document CHEMBL1148804, “Enzyme adaptation to inhibitor binding: a cryptic binding site in phenylethanolamine N-methyltransferase” (J Med Chem, 2007).

Structures are written as SMILES.

The species named for the test is Homo sapiens. The test can be described thus: Ratio of Ki for wild type human PNMT to Ki for human PNMT K57 mutant.

For the molecule `NS(=O)(=O)c1ccc2c(c1)CNCC2`, the Ratio Ki was 0.02.
